How the values were obtained:
[1] = system: TAP-expressing RMA tumor cells; assay: Proteasome inhibitor treatment of target cells, cytolysis by CTL (chromium release); type: cell-based, mouse; details: RMA cells treated with proteasome inhibitor
Experimental: (§1) (a) TEIPP-specific CTL were incubated with a panel of TAP-expressing syngeneic tumor cells (see Materials and Methods for descriptions of tumor cell lines). CTL response against TAP-deficient RMA-S in this experiment was 44 ng/ml. (b) Pre-treatment of TAP-expressing T-cell lymphoma (RMA) and B-cell lymphoma (786) cells with IFNγ reduced the reactivity of TEIPP-specific CTL, as measured after 6 h. […] Panels depict means of triplicate wells and one of three experiments is shown. (c-e) TAP-expressing RMA tumor cells were treated with the proteasome inhibitor lactacystin and used as targets for cytolysis by two independent TEIPP-specific CTL (c and d) or control RMA-specific CTL (e). […] One representative experiment of three is shown. […] (f-g) TAP-expressing colon carcinoma MC38 (f) and melanoma B16 (g) were loaded with oligo DNA coding a partial antisense sequence of TAP1. Recognition by TEIPP-specific CTL was measured by IFNγ release. […]
(§2) In order to make an inventory of the deficiencies that can result in TEIPP expression, we assessed the effect of several targeted interventions in the MHC class I processing pathway. […]
(§3) Cytolytic activity of CTL was measured by chromium (^51Cr) release assay, as described before (16). CTL reactivity was also measured by IFNγ release. […] IFNγ content of supernatants was measured by sandwich ELISA technique (at OD 415) as described (47). […]

[2] = system: RMA, 786 and RMA-S tumor cells; assay: IFNγ pre-treatment of tumor cells, recognition by CTL; type: cell-based, mouse
Experimental: (a) TEIPP-specific CTL were incubated with a panel of TAP-expressing syngeneic tumor cells (see Materials and Methods for descriptions of tumor cell lines). CTL response against TAP-deficient RMA-S in this experiment was 44 ng/ml. (b) Pre-treatment of TAP-expressing T-cell lymphoma (RMA) and B-cell lymphoma (786) cells with IFNγ reduced the reactivity of TEIPP-specific CTL, as measured after 6 h. […] Panels depict means of triplicate wells and one of three experiments is shown. (c-e) TAP-expressing RMA tumor cells were treated with the proteasome inhibitor lactacystin and used as targets for cytolysis by two independent TEIPP-specific CTL (c and d) or control RMA-specific CTL (e). […] One representative experiment of three is shown. […] (f-g) TAP-expressing colon carcinoma MC38 (f) and melanoma B16 (g) were loaded with oligo DNA coding a partial antisense sequence of TAP1. Recognition by TEIPP-specific CTL was measured by IFNγ release. […] (h) Tapasin−/− LPS B cell blasts are recognized by TEIPP-specific CTL in a CD8-dependent manner. Spleens of TAP1−/−, Tapasin−/− or wild type B6 mice were cultured with LPS and used as targets for TEIPP-specific CTL.
Thus far, only cells of hematopoietic origin had been tested against TEIPP-specific CTL. […] Likewise, TEIPP-specific CTL recognized immortalized mouse embryo fibroblasts from TAP1−/− origin (FIG. 2c). […] For instance, RMA, the TAP-expressing counterpart of RMA-S against which these T cells were raised, was also recognized by TEIPP-directed CTL, albeit to lower extent (FIG. 3a). Furthermore, the TEIPP-specific CTL recognized two independent TAP-expressing murine leukemia virus-induced B cell lymphomas (FIG. 3a, lines 771 and 786) and, of the tumor targets of non-hematopoietic origin, HPV type 16-transformed fibroblasts (FIG. 3a, line TC1). All these tumor cells expressed TAP, as illustrated by the fact that they serve as proper targets for control CTL that react against defined, TAP-dependent epitopes 15, 16. We therefore considered the possibility that partial deficiencies in MHC class I antigen processing may account for the recognition of several TAP-expressing murine tumor cells by TEIPP-specific CTL. Such partial defects are commonly found in human cancers 5. We examined this idea by treatment of RMA cells with IFNγ, which is known to enhance MHC class I antigen processing at multiple levels, including the transcription of TAP 17. […] In contrast, recognition by RMA-specific control CTL was increased (data not shown).
as §3

Db-restricted TEIPP CTL = assay: Peptide recognition by Db-restricted TEIPP CTL (IFNγ release); type: cell-based, mouse; details: synthetic peptide in titrating amounts
Excerpt: Kb-restricted (a) and Db-restricted TEIPP-CTL (b) respond to human TAP-deficient T2 cells with stable expression of Kb or Db when exogenously loaded with synthetic peptide libraries. Libraries contained peptides with Kb- or Db-binding motifs, Kb lib: xxxxFxxI/L/M (complexity of approximately 108) and Db lib: xxxxNxxxI/L/M (complexity of approximately 109), where x is random for all amino acids. (c-d) Db molecules from RMA-S cells (1011) were immunoaffinity purified and acid eluted peptides were separated by reversed phase HPLC, applying an increasing acetonitril gradient (OD214 left axis, % acetonitril right axis) (c). HPLC fractions were loaded unto T2.Db cells and TEIPP-specific, Db-restricted CTL were applied to detect the eluted peptide-epitope (d). […] Of note, CTL recognition of HPLC fractions depended on the presence of the relevant class I molecule on target cells (not shown). (e) MCLRMTAVM peptide is processed and presented from the Trh4 gene. The Trh4 gene was cloned from RMA-S cells using gene-specific primers. Trh4 gene in the reversed orientation (Trh4r) served as control plasmid. […]
as §3

[3] = system: TAP-deficient RMA-S lymphoma cells; assay: Peptide immunization and challenge with RMA-S tumor cells; type: in vivo; details: with T helper peptide and CpG oligonucleotides, B6 mice
Excerpt: Groups of B6 mice (n=10) were immunized with synthetic peptides comprising TEIPP Db peptide MCLRMTAVM or control Db peptide SSPVNSLRNVV51 combined with T helper peptide EPLTSLTPRCNTAWNRLKL29 and CpG oligonucleotides 28 and challenged with TAP-deficient RMA-S lymphoma cells. Mice were challenged at day 0 and immunized at days −14, 7 and 14. Immunization with irradiated RMA-S.B7 cells served as positive control.
We therefore immunized groups of mice with the newly identified Db-restricted TEIPP CTL epitope, or a control CTL epitope, in combination with a previously identified tumor-specific CD4+ T-helper epitope (29), and challenged the mice with a tumorigenic dose of RMA-S cells.
B6 mice were immunized with synthetic peptides by s.c. injections of 100 μg of peptide, 50 μg T-helper peptide EPLTSLTPRCNTAWNRLKL 29 and 40 μg Toll-Like Receptor 9 ligand CpG oligonucleotides 28 per mouse in a total volume of 200 μl PBS. Mice were challenged s.c. at the opposite flank with 8×10^5 RMA-S cells in PBS.

[4] = system: MC38 colon carcinoma cells and B16 melanoma cells; assay: TAP1 antisense oligonucleotide treatment of tumor cells, recognition by TEIPP-specific CTL (IFNγ release); type: cell-based, mouse
Experimental: as §1, §2, §3

Q: Which “recognition of treated RMA cells by control CTL” value [1] does the source give for `CC(=O)N[C@@H](CSC(=O)[C@]1([C@@H](O)C(C)C)NC(=O)[C@H](C)[C@@H]1O)C(=O)O` [lactacystin] here?
A: decreased

Q: What about the “sensitivity of treated RMA cells to lysis by TEIPP-specific CTL” value [1] of the same compound?
A: increased their sensitivity to lysis by these CTL

Q: Which results are given for “IFNγ: interferon gamma used to pre-treat tumor cells”?
A: recognition of pretreated cells by TEIPP-specific CTL ([2]; RMA cells): reduced recognition of these cells by TEIPP-specific CTL; recognition of pretreated cells by RMA-specific control CTL ([2]; RMA cells, data not shown): increased; MHC class I surface expression ([2]; RMA cells, not shown): increased three-fold; recognition of pretreated cells by CTL ([2]; RMA-S cells, data not shown): did not result in an increased recognition

Q: With MCLRMTAVM as the compound, how does the “recognition by Db-restricted TEIPP CTL” value (Db-restricted TEIPP CTL) read?
A: efficiently recognized by the Db-restricted TEIPP CTL, at much lower concentration than the mimotope peptide

Q: What about the “tumor protection after immunization” value [3] of the same compound?
A: tumor protection in the majority of mice

Q: For “TAP1-specific anti-sense oligonucleotides: 'morpholino' oligonucleotides encoding the antisense sequence of mouse TAP1 (5′-AGAGTCTGGTCCTAGCCTGGGA-3′) (all phosphorodiamidate morpholino (PMO))”, which “recognition of treated cells by TEIPP-specific CTL” value [4] is on record?
A: increased recognition by TEIPP-specific CTL

Q: How did the “tumor protection after immunization” value [3] turn out when “control peptide: control Db peptide SSPVNSLRNVV used for immunization” was run?
A: developed progressively growing tumors

Reference: patent US20090220534A1, “METHODS FOR IDENTIFYING T-CELL EPITOPES ASSOCIATED WITH IMPAIRED PEPTIDE PROCESSING AND APPLICATIONS OF THE IDENTIFIED EPITOPES” (Leiden University Medical Center, priority 2006, published 2009)
